Key:
SARS-CoV-2 = assay: Example 1B: immunofluorescence (anti-dsRNA) quantification of SARS-CoV-2-infected Vero E6 cells; format: cell-based; conditions: at 10 μM, MOI 0.4, 24 h (FIG. 3)
Description: FIG. 3 represents the experiment scheme of a SARS-CoV-2 infection of Vero E6 cells at an MOI of 0.4 and the percentage of infected cells assessed by immunofluorescence (IF) in the presence of increasing concentrations of alisporivir.
The anti-SARS-CoV-2 effectiveness of alisporivir was confirmed by immunofluorescence. Vero E6 cells were infected by SARS-CoV-2 at an MOI of 0.4 for 2 h in the presence of increasing concentrations of alisporivir (1, 5 and 10 μM). After virus removal, infected cells were incubated for 24 h in the presence of alisporivir and immunostained with an anti-double-stranded-RNA (dsRNA) antibody. Infected cells were quantified using ImageJ software.

[1] = test system: SARS-Cov-2 (isolate from patient infected in Paris)
[2] = test system: clinical isolate of SARS-CoV-2
SARS-Cov-1 = conditions: cited from earlier work
in vitro [3] = conditions: African green monkey
in vitro [4] = conditions: African green monkey; remark: listed apart in the source

For `C/C=C/C[C@@H](C)[C@@H](O)[C@H]1C(=O)N[C@@H](CC)C(=O)N(C)[C@H](C)C(=O)N(CC)[C@@H](C(C)C)C(=O)N[C@@H](C(C)C)C(=O)N(C)[C@@H](CC(C)C)C(=O)N[C@@H](C)C(=O)N[C@H](C)C(=O)N(C)[C@@H](CC(C)C)C(=O)N(C)[C@@H](CC(C)C)C(=O)N(C)[C@@H](C(C)C)C(=O)N1C` [alisporivir, [D-MeAla]3-[EtVal]4-CsA], the “inhibition of the number of SARS-CoV-2-infected cells (immunofluorescence)” value (SARS-CoV-2) was “complete inhibition”, the EC50 [1] was 0.54 µM and the “percentage of inhibition of SARS-CoV-2 RNA production in cell culture supernatant” value [1] was > 90%. For the same compound, the cytotoxicity (VeroE6 cells) was “not cytotoxic”, the “maximum viral RNA reduction” value [2] was 2 log 10 and the therapeutic index ([2]; clinical isolate of, 2 h) was “more than 43”. The EC50 ([2]; clinical isolate of, 48 h) was 0.46 µM, the EC90 ([2]; clinical isolate of, 48 h) was 3.1 µM and the “fold higher EC50 against SARS-Cov-1 than for HCV replicon” value (SARS-Cov-1) was 10.-50 fold. For the same compound, the EC50 (SARS-Cov-1; read-out: EC50 in vitro against different SARS-Cov-1) was 2 to 10 µM, the selectivity ratio (in vitro [3]) was > 37 and the CC50 (in vitro [4]) was > 20 µM.
